Structures can show the parent of a compound that is named as a salt.

Series [1] relates to Bel-7402. In words: Cytotoxicity against human Bel-7402 cells assessed as inhibition rate at 5 uM incubated for 72 hrs by MTT assay relative to control. Type of series: functional. The arrangement: scale not given: the % may be the effect or the level left.
For series [2], the system named is Bel-7402. The series is described as follows: cells. The conditions noted are these: Homo sapiens, Bel-7402, 24 h, read-out: Activity.
For series [3], the system named is Bel-7402. In words: Cytotoxicity against human Bel-7402 cells assessed as reduction in cell viability incubated for 72 hrs by MTT assay. The class given is functional, cell-based. To be noted: Bel-7402, 72 h.
The test system of series [4] is HeLa. The series is described as follows: Cytotoxicity against human HeLa cells assessed as reduction in cell viability incubated for 72 hrs by MTT assay. Type of series: functional, cell-based.
Series [5] relates to ECa-109 cell line. In words: Cytotoxicity against human Eca-109 cells assessed as reduction in cell viability incubated for 72 hrs by MTT assay. Type of series: functional, cell-based. To be noted: ECa-109, 72 h.
Series [6] can be described thus: Cytotoxicity against human HepG2 cells assessed as reduction in cell viability incubated for 72 hrs by MTT assay. Type of series: toxicity, cell-based.
The nature of series [7]: Cytotoxicity against human Biu-87 cells assessed as reduction in cell viability incubated for 72 hrs by MTT assay. Type of series: functional, cell-based. To be noted: BIU87, 72 h.
The subject of series [8] is PANC-1. The series is described as follows: Cytotoxicity against human PANC-1 cells assessed as reduction in cell viability incubated for 72 hrs by MTT assay. The class given is functional, cell-based. To be noted: PANC-1, 72 h.

For `CC[C@H](C)/C=C(C)/C=C/C1=CC2=C(Cl)C(=O)[C@](C)(OC(C)=O)C(=O)C2=CN1Cc1ccc(C(F)(F)F)cn1`, the Activity in series [1] was 21.49%.

Regarding `CC[C@H](C)/C=C(C)/C=C/C1=CC2=C(Cl)C(=O)[C@](C)(OC(C)=O)C(=O)C2=CN1c1ccc(OC(F)(F)F)cc1`, in series [1], the Activity stood at 22.81%.

For `CC[C@H](C)/C=C(C)/C=C/C1=CC2=C(Cl)C(=O)[C@](C)(O)C(=O)C2=CN1Cc1ccc(OC)cc1`, the Activity in series [1] is reported as 36.51%.

As to `CC[C@H](C)/C=C(C)/C=C/C1=CC2=C(Cl)C(=O)[C@](C)(OC(C)=O)C(=O)C2=CN1Cc1ccc(C(F)(F)F)cc1`, the Activity in series [1] was determined as 44.16%.

As for `CC[C@H](C)/C=C(C)/C=C/C1=CC2=C(Cl)C(=O)[C@](C)(OC(C)=O)C(=O)C2=CN1c1cc(OC)c(OC)c(OC)c1`, the Activity in series [1] stood at 9.61%.

`CC[C@H](C)/C=C(C)/C=C/C1=CC2=C(Cl)C(=O)[C@](C)(O)C(=O)C2=CN1c1ccc(OC)c(OC)c1`: the Activity in series [1] was 5.75%.

Turning to `CC[C@H](C)/C=C(C)/C=C/C1=CC2=C(Cl)C(=O)[C@](C)(OC(C)=O)C(=O)C2=CN1Cc1ccc(C(F)(F)F)nc1`, in series [1], the Activity was 21.53%.

Regarding `C=CCN1C=C2C(=O)[C@@](C)(OC(C)=O)C(=O)C(Cl)=C2C=C1/C=C/C(C)=C/[C@@H](C)CC`, the Activity in series [1] is on record as 8.65%.

As to `CC[C@H](C)/C=C(C)/C=C/C1=CC2=C(Cl)C(=O)[C@](C)(O)C(=O)C2=CN1c1ccc(C(F)(F)F)cc1`, the Activity in series [1] turned out to be 63.16%.

For the compound `N#CC(=C(/N)Sc1ccccc1N)/C(C#N)=C(\N)Sc1ccccc1N`, in series [2], the viability at 20 µM was 88.3%.

Take `CC[C@H](C)/C=C(C)/C=C/C1=CC2=C(Cl)C(=O)[C@](C)(O)C(=O)C2=CN1c1cc(OC)c(OC)c(OC)c1`: in series [1], the Activity stood at 11.27%.

For `CC[C@H](C)/C=C(C)/C=C/C1=CC2=C(Cl)C(=O)[C@](C)(O)C(=O)C2=CN1c1ccc(OC(F)(F)F)cc1`, the Activity in series [1] is given as 43.16%.

Turning to `CC[C@H](C)/C=C(C)/C=C/C1=CC2=C(Cl)C(=O)[C@](C)(O)C(=O)C2=CN1CCc1cccc(C(F)(F)F)c1`, the Activity in series [1] was found to be 45.76%.

For the compound `COc1cccc2c1C(=O)c1c(O)c3c(c(O)c1C2=O)C[C@@](O)(C(=O)CO)C[C@@H]3O[C@H]1C[C@H](N)[C@H](O)[C@H](C)O1` [DOXORUBICIN HYDROCHLORIDE], the results for the IC50 in series [3], in series [4] and in series [5] were 369 nM, 602 nM and 201 nM, respectively. Besides, the IC50 at 72 h in series [6] stood at 450 nM.

For the compound `CC[C@H](C)/C=C(C)/C=C/C1=CC2=C(Cl)C(=O)[C@](C)(OC(C)=O)C(=O)C2=CN1Cc1ccc(OC(F)(F)F)cc1`, in series [1], the Activity amounted to 27.46%.

As to `CC[C@H](C)/C=C(C)/C=C/C1=CC2=C(Cl)C(=O)[C@](C)(O)C(=O)C2=CN1Cc1ccc(C(F)(F)F)cc1`, the IC50 in series [3] was 1450 nM; in series [7], 3100 nM; in series [4], 2400 nM; in series [5], 1480 nM; in series [8], 1440 nM. Moreover, the Activity in series [1] stood at 81.73%. In addition, the IC50 at 72 h in series [6] stood at 3360 nM.

`CC[C@H](C)/C=C(C)/C=C/C1=CC2=C(Cl)C(=O)[C@](C)(O)C(=O)C2=CN1Cc1ccc(C(F)(F)F)cn1`: the Activity in series [1] was determined as 10.55%.

Consider `CC[C@H](C)/C=C(C)/C=C/C1=CC2=C(Cl)C(=O)[C@](C)(O)C(=O)C2=CN1Cc1ccc(C)cc1`, for which the Activity in series [1] turned out to be 20.52%.

As to `CC[C@H](C)/C=C(C)/C=C/C1=CC2=C(Cl)C(=O)[C@](C)(O)C(=O)C2=CN1Cc1ccc(C(F)(F)F)nc1`, the Activity in series [1] was found to be 12.09%.

For the compound `CC[C@H](C)/C=C(C)/C=C/C1=CC2=C(Cl)C(=O)[C@](C)(OC(C)=O)C(=O)C2=CN1c1ccc(C(F)(F)F)cc1`, in series [1], the Activity stood at 28.9%.

Take `CC[C@H](C)/C=C(C)/C=C/C1=CC2=C(Cl)C(=O)[C@](C)(OC(C)=O)C(=O)C2=CN1c1ccc(OC)c(OC)c1`: the Activity in series [1] was 8.16%.

With `CC[C@H](C)/C=C(C)/C=C/C1=CC2=C(Cl)C(=O)[C@](C)(OC(C)=O)C(=O)C2=CN1c1cc(OC)cc(OC)c1`, in series [1], the Activity was 7.94%.

Turning to `CC[C@H](C)/C=C(C)/C=C/C1=CC2=C(Cl)C(=O)[C@](C)(OC(C)=O)C(=O)C2=CN1Cc1ccc(OC)cc1`, the Activity in series [1] is listed as 6.58%.

As for `CC[C@H](C)/C=C(C)/C=C/C1=CC2=C(Cl)C(=O)[C@](C)(O)C(=O)C2=CN1c1cc(OC)cc(OC)c1`, the Activity in series [1] is listed as 11.14%.

`CC[C@H](C)/C=C(C)/C=C/C1=CC2=C(Cl)C(=O)[C@](C)(OC(C)=O)C(=O)C2=CN1Cc1ccc(C)cc1`: in series [1], the Activity is recorded as 16.2%.

As to `CC[C@H](C)/C=C(C)/C=C/C1=CC2=C(Cl)C(=O)[C@](C)(OC(C)=O)C(=O)C2=CN1CCc1cccc(C(F)(F)F)c1`, the Activity in series [1] is 35.93%.

For `C#CCN1C=C2C(=O)[C@@](C)(OC(C)=O)C(=O)C(Cl)=C2C=C1/C=C/C(C)=C/[C@@H](C)CC`, the Activity in series [1] turned out to be 6.81%.

`CC[C@H](C)/C=C(C)/C=C/C1=CC2=C(Cl)C(=O)[C@](C)(OC(C)=O)C(=O)C2=CN1c1ccc(OC)cc1`: the Activity in series [1] worked out at 7.45%.

The values above are taken from ChEMBL document CHEMBL5154737, “Semisynthesis and biological evaluation of (+)-sclerotiorin derivatives as antitumor agents for the treatment of hepatocellular carcinoma” (Eur J Med Chem, 2022).
